From ChEMBL document CHEMBL5442168, “ASAP - In vitro liver microsomal stability” (2024)
Several values for one entry are separate records, joined by “and”; a condition that tells them apart may be missing. Equal values may be shown once.

Tests used:
[1] = (§1) Mouse liver microsomal stability of compound in microsomal protein, PBS buffer pH 7.4, NADPH, glucose-6-phosphate and glucose-6-phosphate dehydrogenase media. Aliquotes were taken at 5 time points and after stopping the reaction, supernatants were analyzed using HPLC coupled with a tandem mass spectrometer. The elimination constant, half-life, and intrinsic clearance are determined as results using linear regression analysis. The assay has been performed by Enamine biological services, Bienta Ltd.The protocol is publicly available: dx.doi.org/10.17504/protocols.io.5qpvokdb9l4o/v1; type: ADME, microsomes, Microsome; details: for half-life / microsomal CLint: liver microsomes; for Remaining / Remaining (without cofactor) / CLint / T1/2: microsomes
[2] = as §1, with “Human” for “Mouse”; type: ADME, microsomes, Microsome; details: for half-life / microsomal CLint: liver microsomes; for Remaining / Remaining (without cofactor) / CLint / T1/2: microsomes
Wherever Remaining (without cofactor) is given: time not given here.
Wherever Remaining is given: time not given here.

Row | Compound | half-life [1] [min] | microsomal CLint [1] [µL/min/mg] | Remaining [1] | Remaining (without cofactor) [1] | half-life [2] [min] | microsomal CLint [2] [µL/min/mg] | Remaining [2] | Remaining (without cofactor) [2] | CLint [1] | T1/2 [1] | CLint [2] | T1/2 [2]
1 | CC(C)[C@H](Nc1ncnc2[nH]c(-c3cnn(CC(=O)N(C)C)c3)cc12)c1ccc2c(c1)S(=O)(=O)CCC2 | 13.5 | 124 | 13% | 98% | 18.1 | 92 | 22% | 97% | – | – | – | –
2 | CC(C)[C@@H](Nc1ncnc2[nH]ccc12)c1ccc2c(c1)S(=O)(=O)CCC2 | – | – | – | 103% and 117% | 44.7 | 37 | 53% and 69% | 99% | 138 µL/min/mg and 55 µL/min/mg | 12.1 min and 30.4 min | 21 µL/min/mg | 78.6 min
3 | CC(C)[C@@H](Nc1ncnc(N)c1Cl)c1ccc2c(c1)S(=O)(=O)CCC2 | 8.2 | 204 | 4% | 102% | 21 | 79 | 27% | 101% | – | – | – | –
4 | C[C@H](C(=O)O)[C@@H](NC(=O)c1ncnc2[nH]ccc12)c1ccc(Br)cc1 | 380 | 4 | 111.226% | 100.245% | 574 | 3 | 92.211% | 101.611% | – | – | – | –
5 | CCNC(=O)c1cc2c(N[C@@H](c3ccc4c(c3)S(=O)(=O)CCC4)C(C)C)ncnc2[nH]1 | 19.5 | 85 | 21% and 43% | 95% and 114% | – | – | 15% and 0% | 98% and 102% | 54 µL/min/mg | 30.8 min | – | –
6 | CNCc1cc(-c2cc3c(N[C@@H](c4ccc5c(c4)S(=O)(=O)CCC5)C(C)C)ncnc3[nH]2)co1 | 32.2 | 52 | 41% and 35% | 108% and 101% | – | – | – | 110% and 95% | 54 µL/min/mg | 30.9 min | 57 µL/min/mg and 133 µL/min/mg | 29.4 min and 12.6 min

Now from value to compound:

Row | half-life [1] [min] | microsomal CLint [1] [µL/min/mg] | Remaining [1] | Remaining (without cofactor) [1] | half-life [2] [min] | microsomal CLint [2] [µL/min/mg] | Remaining [2] | Remaining (without cofactor) [2] | CLint [1] | T1/2 [1] | CLint [2] | T1/2 [2] | Compound
7 | 162 | 10 | 88% | 116% | 60.8 | 27 | 64% | 95% | – | – | – | – | CC(C)(C)[C@H](Nc1ncnc2[nH]c(-c3cnn(CC(N)=O)c3)cc12)c1ccc2c(n1)OCCO2
8 | 30.5 | 55 | 43% | 112% | 21.1 | 79 | 23% | 92% | – | – | – | – | CNC(=O)c1cc2c(N[C@@H](c3ccc4c(c3)OCCO4)C(C)C)ncnc2[nH]1
9 | 19 | 88 | 24% and 29% | 109% and 92% | – | – | – | 103% and 97% | 72 µL/min/mg | 23.2 min | – | – | CCNC(=O)c1cc2c(N[C@@H](c3ccc4c(c3)OCCO4)C(C)C)ncnc2[nH]1
10 | 104 | 16 | 80% | 104% | 35.4 | 47 | 43% | 102% | – | – | – | – | CC(C)[C@H](Nc1ncnc2[nH]c(-c3cnn(CC(N)=O)c3)cc12)c1ccc2c(c1)OCCO2
